# In patent EP3338554A1, “COMPOSITION AND METHOD FOR PREVENTING DEPOSIT FORMATION IN A DRIP IRRIGATION SYSTEM” (Evonik Degussa GmbH, priority 2016, dated 2018):
# Experiment: Calcium sulfate precipitation test of NACE standard TM0374-2007 (scale inhibition efficiency)
# Protocol: The efficiency for preventing the precipitation of calcium sulfate from aqueous solution was determined with the calcium sulfate precipitation test of NACE standard TM0374-2007. A composition prepared as in example 1 was added in amounts providing the concentrations of hydrogen peroxide and HEDP in the test brine given in table 4. The hydrogen peroxide and the HEDP used for making the composition were tested for comparison.
structure (smiles),measurement,setting,value
"CC(O)(P(=O)(O)O)P(=O)(O)O [HEDP, 1-hydroxyethylidene-1,1-diphosphonic acid]",% inhibition in calcium sulfate precipitation test,HEDP 1 ppm alone,39%
same,% inhibition in calcium sulfate precipitation test,HEDP 5 ppm alone,77%
same,% inhibition in calcium sulfate precipitation test,HEDP 10 ppm alone,74%
"OO [Hydrogen peroxide, hydrogen peroxide]",% inhibition in calcium sulfate precipitation test,hydrogen peroxide 10 ppm alone,-8%
same,% inhibition in calcium sulfate precipitation test,hydrogen peroxide 50 ppm alone,-9%
same,% inhibition in calcium sulfate precipitation test,hydrogen peroxide 100 ppm alone,-9%
